Measured values reported in ChEMBL document CHEMBL3871282, “Neo-tanshinlactone D-ring modified novel analogues induce apoptosis in human breast cancer cell via DNA damage” (Bioorg Med Chem, 2017).
The source made the active and inactive calls. The rule behind the calls is not given here.

Tests used:
MCF7 [1] = test: Binding affinity to DNA in human MCF7 cells assessed as formation of nuclear DNA double strand breaks at 12 nM after 24 hrs by DAPI-staining based fluorescence microscopic analysis; format: cell-based
[2] = Cell cycle arrest in human MCF7 cells assessed as G2/M phase at 12 nM after 24 hrs by propidium iodide staining based FACS analysis (reference value: 28.3%); format: functional
MCF7 [3] = test: Induction of DNA double strand breaks in human MCF7 cells assessed as gamma-H2AX foci at near IC50 after 24 hrs by DAPI staining based immunofluorescence assay; format: cell-based
Bos taurus [4] = species: Bos taurus; test: Binding affinity to calf thymus DNA assessed as DNA positive band formation at 1:1 compound to DNA ratio by circular dichroism method
MCF7 [5] = test: Induction of DNA damage-mediated apoptosis in human MCF7 cells assessed as downregulation of HDAC1 after 24 hrs by DAPI staining based immunocytochemistry analysis; format: cell-based
Escherichia coli = test: Induction of Escherichia coli supercoiled pBR322 DNA cleavage assessed as increase in open circular form of DNA band after 3 hrs by ethidium bromide staining based agarose gel electrophoresis method
MCF7 [6] = test: Induction of DNA damage-mediated apoptosis in human MCF7 cells assessed as increase in Rb-E2F1 interaction at 8 to 16 nM after 24 hrs by co-immunoprecipitation analysis; format: cell-based
[7] = Cytotoxicity against human HepG2 cells assessed as cell growth inhibition after 24 hrs by MTT assay; format: functional, cell-based; conditions: HepG2, 24 h
[8] = Cell cycle arrest in human MCF7 cells assessed as G2/M phase at 8 nM after 24 hrs by propidium iodide staining based FACS analysis (reference value: 28.3%); format: functional
MCF7 [9] = test: Induction of DNA damage-mediated apoptosis in human MCF7 cells assessed as delocalization of HDAC3 from nuclear to cytoplasm at 8 to 16 nM after 24 hrs by DAPI staining based immunocytochemistry analysis; format: cell-based
MCF7 [10] = test: Induction of DNA damage-mediated apoptosis in human MCF7 cells assessed as Rb hypo-phosphorylation after 24 hrs by immunoblot analysis; format: cell-based
MCF7 [11] = test: Induction of DNA damage-mediated apoptosis in human MCF7 cells assessed as increase in HDAC3 expression in cytoplasmic fraction at 8 to 16 nM after 24 hrs by immunoblot analysis; format: cell-based
MCF7 [12] = test: Binding affinity to DNA in human MCF7 cells assessed as formation of DNA double strand breaks after 24 hrs by neutral comet assay; format: cell-based
[13] = Induction of DNA damage-mediated apoptosis in human MCF7 cells assessed as upregulation of cytochrome c after 24 hrs by immunoblot analysis; format: cell-based
MCF7 [14] = test: Induction of apoptosis in human MCF7 cells at IC50 after 24 hrs by Annexin V/7AAD-dual staining based fluorescent microscopic analysis; format: functional
MCF7 [15] = test: Induction of apoptosis in human MCF7 cells assessed as late apoptotic cells at 12 nM after 24 hrs by Annexin V-FITC/propidium iodide-dual staining based FACS analysis (reference value: 0.1%); format: functional
MCF7 [16] = test: Induction of DNA damage-mediated apoptosis in human MCF7 cells assessed as decrease in HDAC3 expression in nuclear fraction at 8 to 16 nM after 24 hrs by immunoblot analysis; format: cell-based
MCF7 [17] = test: Induction of apoptosis in human MCF7 cells assessed as early apoptotic cells at 16 nM after 24 hrs by Annexin V-FITC/propidium iodide-dual staining based FACS analysis (reference value: 2.3%); format: functional
MCF7 [18] = test: Induction of DNA damage-mediated apoptosis in human MCF7 cells assessed as phosphorylation of p53 at Ser-15 residue after 24 hrs by DAPI staining based immunocytochemistry analysis; format: cell-based
MCF7 [19] = test: Induction of DNA double strand breaks in human MCF7 cells assessed as H2AX phosphorylation at near IC50 after 24 hrs by Western blot analysis; format: cell-based
MCF7 [20] = test: Induction of DNA damage-mediated apoptosis in human MCF7 cells assessed as downregulation of HDAC2 after 24 hrs by DAPI staining based immunocytochemistry analysis; format: cell-based
Bos taurus [21] = species: Bos taurus; test: Inhibition of DAPI binding to calf thymus DNA at 10 to 50 uM measured at 460 nm by fluorescence spectroscopic method
MCF7 [22] = test: Induction of DNA damage-mediated apoptosis in human MCF7 cells assessed as decrease in HDAC2 levels in nuclear fraction at 8 to 16 nM after 24 hrs by immunoblot analysis; format: cell-based

In the case of `O=c1cc(OCc2ccccc2)c2ccc3ccccc3c2[nH]1`, the Activity (MCF7 [1]) is reported as “Active”, the Activity [2] is reported as 16.2% and the Activity (MCF7 [3]) is reported as 29.9%. The Activity (Bos taurus [4]) was “Active”, the Activity (MCF7 [5]) was “Dose-dependent effect” and the Activity (Escherichia coli) was “Dose-dependent effect”. For the same compound, the Activity (MCF7 [6]) was “Active”, the IC50 [7] was 37 µM and the Activity [8] was 19%. The Activity (MCF7 [9]) was “Active”, the Activity (MCF7 [10]) was “Dose-dependent effect” and the Activity (MCF7 [11]) was “Active”. The Activity (MCF7 [12]) was “Dose-dependent effect”, the Activity [13] was “Dose-dependent effect” and the Activity (MCF7 [14]) was 44.78%. The Activity (MCF7 [15]) was 5.8%, the Activity (MCF7 [16]) was “Active” and the Activity (MCF7 [17]) was 43.5%. For the same compound, the Activity (MCF7 [18]) was “Dose-dependent effect”, the Activity (MCF7 [19]) was “Active” and the Activity (MCF7 [20]) was “Dose-dependent effect”. For the same compound, the inhibition (Bos taurus [21]) was “Active” and the Activity (MCF7 [22]) was “Active”.
